Data reported in US20260216294A1, “BETA 2-ADRENERGIC RECEPTOR AGONISTS FOR TREATMENT OR PREVENTION OF MUSCLE WASTING” (ATROGI AB, priority 2023, published 2026).

Experiments:
[1] = system: L6-myotubes; experiment: Measurement of intracellular cAMP levels in differentiated L6-myotubes (Biological Example 3); type: cell-based; settings: 0.25 h
In short: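 Serum-starved differentiated L6 myotubes stimulated 15 min with test compound at 1×10^−5 M final (isoprenaline as reference) in HBSS with 1% BSA, 5 mM HEPES, 1 mM IBMX, pH 7.4. Cells EtOH-extracted, lysed, and intracellular cAMP measured by AlphaScreen.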

[2] = system: L6-myotubes; experiment: Glucose uptake in differentiated L6-myotubes (Biological Example 2); type: cell-based; settings: read-out: Biological example 2 (GU)
In short: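 Differentiated L6 myotubes were serum-starved overnight in 0.5% fatty-acid-free BSA and then stimulated with compound or isoprenaline at 1×10^−5 M final. After 1 h 40 min cells were washed and re-dosed in glucose-free medium. Twenty minutes later, uptake of 50 nM ^3H-2-deoxyglucose over 10 min was measured by scintillation counting of NaOH lysates.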

[3] = intracellular cAMP, compound at 10 μM relative to isoproterenol at 10 μM
[4] = glucose uptake, compound at 10 μM relative to isoproterenol at 10 μM
[5] = intracellular cAMP in differentiated L6-myotubes, compound at 10 μM, activity relative to isoproterenol at 10 μM
[6] = glucose uptake in differentiated L6-myotubes, compound at 10 μM, activity relative to isoproterenol at 10 μM

Structure (SMILES)	Emax at 10 µM [1, 3] [%]	Emax at 10 µM [2, 4] [%]	Emax at 10 µM [1, 5] [%]	Emax at 10 µM [2, 6] [%]
Cn1ccc([C@@H](O)CNC(C)(C)C)cc1=O [Compound 98, 4-[(R)-2-(tert-butylamino)-1-hydroxyethyl]-1-methyl-2(1H)-pyridinone]	< 25	> 75	–	–
CO[C@H]1CC[C@H](C[C@@H]2CC[C@H]([C@@H](O)c3cccc(F)c3)N2)CC1 [Compound 325, (S)-[(2R,5S)-5-{[(1r,4S)-4-methoxycyclohexyl]methyl}-2-pyrrolidinyl](m-fluorophenyl)methanol]	–	–	< 25	> 75
CCC[C@@H]1CCC[C@H]([C@@H](O)c2cccc(O)c2)N1 [Compound 137, (S)-[(2R,6R)-6-propyl-2-piperidyl](m-hydroxyphenyl)methanol]	< 25	25 to 50	–	–
CC1(C)CC[C@H]([C@@H](O)c2cc(F)c(N)c(F)c2)N1 [Compound 236]	–	–	25 to 50	> 75
CC(C)(CC[C@H]1CC[C@@H](O)CC1)NC[C@H](O)c1cncc(F)c1 [Compound 296, (R)-2-{1,1-dimethyl-3-[(1s,4R)-4-hydroxycyclohexyl]propylamino}-1-(5-fluoro-3-pyridyl)-1-ethanol]	–	–	< 25	> 75
CC1(C)CC[C@H]([C@@H](O)c2cccc(N)c2F)N1 [Compound 226, (S)-[(R)-5,5-dimethyl-2-pyrrolidinyl](3-amino-2-fluorophenyl)methanol]	–	–	< 25	25 to 50
CCCCNCC(O)c1ccc(F)c(N)c1 (centres unmarked) [Compound 44, 1-(3-amino-4-fluorophenyl)-2-(butylamino)-1-ethanol]	< 25	50 to 75	–	–
CCCCNC[C@H](O)c1ccc(F)cc1O [Compound 81, (R)-2-(butylamino)-1-(4-fluoro-2-hydroxyphenyl)-1-ethanol]	< 25	50 to 75	–	–
CC(C)(CC[C@H]1CC[C@H](O)CC1)NC[C@H](O)c1ccccc1F [Compound 319, (R)-2-{1,1-dimethyl-3-[(1r,4S)-4-hydroxycyclohexyl]propylamino}-1-(o-fluorophenyl)-1-ethanol]	–	–	< 25	> 75
CC1(C)CC[C@H]([C@H](O)c2cccc(N)c2F)N1 [Compound 227, (R)-[(R)-5,5-dimethyl-2-pyrrolidinyl](3-amino-2-fluorophenyl)methanol]	–	–	< 25	> 75
CS(=O)(=O)Nc1ccc(CC23CCC([C@@H](O)c4cccc(F)c4)(CC2)N3)cc1 [Compound 474, (S)-(m-fluorophenyl)(4-{[p-(mesylamino)phenyl]methyl}-7-azabicyclo[[2.2.1]]hept-1-yl)methanol]	–	–	< 25	50 to 75
CC1(C)CC[C@H]([C@H](O)c2ccc(F)cc2)N1 [Compound 173]	< 25	50 to 75	–	–
CCCC(C)NCC(O)c1ccc(O)c(Cl)c1 (centres unmarked) [Compound 19, 1-(3-chloro-4-hydroxyphenyl)-2-(1-methylbutylamino)-1-ethanol]	< 25	25 to 50	–	–
CC(=O)N[C@H]1CC[C@H](C(C)(C)NC[C@H](O)c2cccc(F)c2)CC1 [Compound 386, N-[(1R,4r)-4-{1-[(R)-2-(m-fluorophenyl)-2-hydroxyethylamino]-1-methylethyl}cyclohexyl] acetamide]	–	–	< 25	> 75
CCS(=O)(=O)N[C@H]1CC[C@H](CC(C)(C)NC[C@H](O)c2cncc(F)c2)CC1 [Compound 525, (R)-2-{1,1-dimethyl-2-[(1r,4R)-4-(ethylsulfonylamino)cyclohexyl]ethylamino}-1-(5-fluoro-3-pyridyl)-1-ethanol]	–	–	< 25	50 to 75
CC(C)(C[C@H]1CC[C@H](NC(=O)C(C)(C)C)CC1)NC[C@H](O)c1cccc(F)c1 [Compound 429]	–	–	25 to 50	> 75
CC12CC(C1)[C@@H]([C@H](O)c1cccc(Cl)c1)N2 [Compound 209]	–	–	< 25	25 to 50
CC12CCC([C@H](O)c3cccc(F)c3)(CC1)N2 [Compound 179, (R)-(m-fluorophenyl)(4-methyl-7-azabicyclo[[2.2.1]]hept-1-yl)methanol]	< 25	50 to 75	–	–
CS(=O)(=O)N[C@H]1CC[C@@H](C[C@@H]2CC[C@H]([C@@H](O)c3cccc(F)c3)N2)CC1 [Compound 511]	–	–	< 25	25 to 50
CC(=O)N(C)[C@H]1CC[C@H](CC(C)(C)NC[C@H](O)c2cncc(F)c2)CC1 [Compound 506]	–	–	25 to 50	> 75

Structure (SMILES)	Emax at 10 µM [1, 3] [%]	Emax at 10 µM [2, 4] [%]	Emax at 10 µM [1, 5] [%]	Emax at 10 µM [2, 6] [%]
CCC[C@@H](C)NC[C@H](O)c1ccc(O)cc1 [Compound 27, (R)-2-[(R)-1-methylbutylamino]-1-(p-hydroxyphenyl)-1-ethanol]	25 to 50	> 75	–	–
O[C@@H](c1cncc(F)c1)C12CCC(C/C=C/c3ccccc3)(CC1)N2 [Compound 529, (S)-{4-[(E)-3-phenyl-2-propenyl]-7-azabicyclo[[2.2.1]]hept-1-yl}(5-fluoro-3-pyridyl)methanol]	–	–	< 25	25 to 50
CCC[C@H]1CCC[C@H]([C@H](O)c2cccc(O)c2)N1 [Compound 64, (R)-[(2R,6S)-6-propyl-2-piperidyl](m-hydroxyphenyl)methanol]	< 25	> 75	–	–
O[C@@H](CNCCC[C@H]1CC[C@H](OCc2ccccc2)CC1)c1cccc(F)c1 [Compound 278, (R)-1-(m-fluorophenyl)-2-{3-[(1r,4S)-4-(benzyloxy)cyclohexyl]propylamino}-1-ethanol]	–	–	< 25	25 to 50
O[C@@H](c1cccc(F)c1)C12CCC(CCc3ccc(OC(F)(F)F)cc3)(CC1)N2 [Compound 544, (S)-(m-fluorophenyl){4-[2-(p-trifluoromethoxyphenyl)ethyl]-7-azabicyclo[[2.2.1]]hept-1-yl}methanol]	–	–	< 25	< 25
CCC[C@@H](C)NC[C@H](O)c1ccc(F)cc1 [Compound 52, (R)-2-[(R)-1-methylbutylamino]-1-(p-fluorophenyl)-1-ethanol]	< 25	50 to 75	–	–
CCC[C@H]1CCC[C@H]([C@@H](O)c2cc(F)cc(F)c2)N1 [Compound 66]	< 25	25 to 50	–	–
COc1ccc(CC23CCC([C@@H](O)c4cccc(F)c4)(CC2)N3)cc1 [Compound 400, (S)-(m-fluorophenyl){4-[(p-methoxyphenyl)methyl]-7-azabicyclo[[2.2.1]]hept-1-yl}methanol]	–	–	< 25	50 to 75
CCCC(C)NCC(O)c1ccc(O)cc1 (centres unmarked) [Compound 8, 1-(p-hydroxyphenyl)-2-(1-methylbutylamino)-1-ethanol]	25 to 50	50 to 75	–	–
CO[C@H]1CC[C@@H](CCC(C)(C)NC[C@H](O)c2cccc(F)c2)CC1 [Compound 264, (R)-2-{1,1-dimethyl-3-[(1s,4R)-4-methoxycyclohexyl]propylamino}-1-(m-fluorophenyl)-1-ethanol]	–	–	25 to 50	> 75
CC(C)(C[C@H]1CC[C@H](O)CC1)NC[C@H](O)c1cccc(F)c1 [Compound 300, (R)-2-{1,1-dimethyl-2-[(1r,4R)-4-hydroxycyclohexyl]ethylamino}-1-(m-fluorophenyl)-1-ethanol]	–	–	< 25	> 75
COc1ccc(CCC23CCC([C@H](O)c4cncc(F)c4)(CC2)N3)cc1 [Compound 542, (R)-(5-fluoro-3-pyridyl){4-[2-(p-methoxyphenyl)ethyl]-7-azabicyclo[[2.2.1]]hept-1-yl}methanol]	–	–	25 to 50	50 to 75
CC1(C)CCC[C@H]([C@@H](O)c2cccc(O)c2)N1 [Compound 103]	< 25	25 to 50	–	–
CCCCNCC(O)c1ccncc1 (centres unmarked) [Compound 48, 2-(butylamino)-1-(4-pyridyl)-1-ethanol]	< 25	25 to 50	–	–
CO[C@H]1CCC[C@@H](C(C)(C)NC[C@H](O)c2cccc(F)c2)C1 [Compound 256, (R)-2-{1-[(1R,3S)-3-methoxycyclohexyl]-1-methylethylamino}-1-(m-fluorophenyl)-1-ethanol]	–	–	25 to 50	> 75
CC(C)(C[C@H]1CC[C@H](NS(C)(=O)=O)CC1)NC[C@@H](O)c1cccc(C#N)n1 [Compound 428, 6-[(R)-2-{1,1-dimethyl-2-[(1r,4R)-4-(mesylamino)cyclohexyl]ethylamino}-1-hydroxyethyl]-2-pyridinecarbonitrile]	–	–	< 25	< 25
CCCCNCC(O)c1ccc(F)c(F)c1 (centres unmarked) [Compound 56, 2-(butylamino)-1-(3,4-difluorophenyl)-1-ethanol]	< 25	50 to 75	–	–
CC1(C)CCC([C@H](O)c2ccccc2F)N1 (stereo in doubt) [Compound 175, (R)-[(R)-5,5-dimethyl-2-pyrrolidinyl](o-fluorophenyl)methanol]	25 to 50	> 75	–	–
CCC[C@H]1CCC[C@H]([C@@H](O)c2ccccc2F)N1 [Compound 106, (S)-[(2R,6S)-6-propyl-2-piperidyl](o-fluorophenyl)methanol]	< 25	25 to 50	–	–
CS(=O)(=O)N(Cc1ccccc1)c1cccc(CC23CCC([C@@H](O)c4cccc(F)c4)(CC2)N3)c1 [Compound 512]	–	–	< 25	< 25
